The record followed here is publication PMC7226370, “Thymus algeriensis and Thymus fontanesii: Chemical Composition, In Vivo Antiinflammatory, Pain Killing and Antipyretic Activities: A Comprehensive Comparison” (Biomolecules, 2020).

Test [1] is described as follows: Total antioxidant capacity (TAC) ELISA kit. The settings on record: mean ± SEM, n = 3. On the procedure: The total antioxidant capacity of the extracts was evaluated against ascorbic acid as a reference standard using the commercially available TAC ELISA kit (MBS726896, my BioSource, Inc., San Diego, CA, USA) according to the manufacturer’s instructions and according to Sobeh et al..
Background: In an ELISA, binding on a coated surface is turned into a signal by an enzyme label.

A further test deals with lipoxygenase (5-LOX). Kind of test: Lipoxygenase inhibitor screening assay kit. To be noted: in vitro, mean ± SEM, n = 3. The format is biochemical. How it is done: The potential of T. algeriensis and T. fontanesii extracts to inhibit lipoxygenase was evaluated using a lipoxygenase inhibitor screening assay kit (Cayman Chemical, AnnArbor, MI, USA) according to the manufacturer’s instructions and the study by Adellall et al..

Test [2] concerns carrageenan-induced hind paw edema in rats. As to the kind of experiment: Carrageenan-induced hind-paw edema model. The format is in vivo, rat. To be noted: 1 h before carrageenan. How it is done:
Nine groups of male rats (200-220 g) with five animals per group were used in this experiment. Induction of edema in the rats' right hind paw was done by injecting 0.1 mL freshly prepared carrageenan solution (1% in 0.9% NaCl), into the sub-plantar tissue. […] By the aid of a caliper ruler, the paw thickness (mm) was measured in the dorsal- plantar axis before and after injecting the carrageenan solution, and at hourly intervals for 5 h, and finally at 24 h. The cumulative anti-inflammatory effect during the whole observation period (0-24 h) was determined by calculating the area under the changes in paw thickness-time curve (AUC0-24).
For orientation: In the carrageenan paw model, swelling and tenderness develop within hours.

In test [3] the test system is leukocyte migration into the peritoneal cavity in mice. Kind of test: Carrageenan-induced leukocyte recruitment into peritoneal cavity. The class given is in vivo, mouse. On the procedure:
Three hours later, the mice were euthanized, and each peritoneal cavity was washed with 3 mL of phosphate-buffered saline (PBS) containing 1mM ethylenediaminetetraacetic acid (EDTA). The total leukocytes count was determined in each peritoneal cavity wash using a hemocytometer and presented as number of cells/mL.

The subject of test [4] is acetic acid-induced vascular permeability in mice. Kind of test: Acetic acid-induced vascular permeability (Evans blue). The class given is in vivo, mouse. On the procedure:
Acetic acid-induced vascular permeability was done as described by Sobeh et al.. […] One group of mice was injected with normal saline to serve as normal control. Mice were euthanized 30 min later by cervical dislocation, the abdominal cavities were washed with 3 mL saline solution, and the collected washings were then centrifuged at 3000 rpm for 10 min. The vascular permeability is proportional to the absorbance of Evans blue dye in the supernatant, which was detected at 610 nm using a plate reader (Biotech, Winooski, VT, USA).

The test system of test [5] is Brewer's yeast induced pyrexia in mice. Kind of test: Brewer's yeast induced pyrexia. To be noted: in °C (unit assumed). The format is in vivo, mouse. How it is done:
Pyrexia in mice was induced as described by Liu et al. with minor modifications. The initial rectum temperature of each animal was measured using a lubricated digital thermometer. Brewer’s yeast suspension was prepared in normal saline (30%) and injected subcutaneously behind the animal’s neck (1 mL/100 g). After 18 h, animals’ rectal temperatures were measured again (T0). […] Pyretic animals were treated orally with either T. algeriensis or T. fontanesii extracts in three dose levels (200, 400, and 600 mg/kg), paracetamol (150 mg/kg), or vehicle. Rectal temperatures were measured at 30 min, 1, 2, 3 and 24 h following the different treatments.

For `O=C1O[C@H]([C@@H](O)CO)C(O)=C1O` [Ascorbic Acid], in test [1], the “TAC (total antioxidant capacity)” value is 27.6 ± 1.40 U/L.
With `O=C(O)Cc1ccccc1Nc1c(Cl)cccc1Cl` [Diclofenac], the half-inhibitory concentration (IC50) against lipoxygenase (5-LOX) came to 2.6 ± 0.21 µM. For the same molecule, the “reduction of paw thickness, of control AUC0-24” value in test [2] (20 mg/kg p.o.) is 44%. Also, in test [3] (20 mg/kg p.o. before carrageenan 500 µg i.p.), the “reduction in leucocyte number” value is on record as 39%. Moreover, the “lower Evans blue readings compared to control” value in test [4] (20 mg/kg) turned out to be 73%.
With `CC(=O)Nc1ccc(O)cc1` [Paracetamol], the “Rectal Temperature Recorded Following Different Treatments, 30 min” value in test [5] (150 mg/kg p.o., 30 min) was found to be 38.18 ± 0.20. The “Rectal Temperature Recorded Following Different Treatments, 1 h” value in test [5] (150 mg/kg p.o., 1 h) amounted to 37.56 ± 0.30. Besides, the “Rectal Temperature Recorded Following Different Treatments, 2 h” value in test [5] (150 mg/kg p.o., 2 h) amounted to 37.06 ± 0.29. Moreover, the “Rectal Temperature Recorded Following Different Treatments, 3 h” value in test [5] (150 mg/kg p.o., 3 h) amounted to 36.94 ± 0.25. In addition, the “Rectal Temperature Recorded Following Different Treatments, 24 h” value in test [5] (150 mg/kg p.o., 24 h) is recorded as 36.54 ± 0.23. In addition, the “Rectal Temperature measured at 18 h after yeast injection” value in test [5] (group of 150 mg/kg, before treatment (T0)) is 38.66 ± 0.18.
`CC(c1cc2ccccc2s1)N(O)C(N)=O` (stereo not drawn) [Zileuton] came in with an IC50 against lipoxygenase (5-LOX) of 3.2 ± 0.15 µM.
In the case of `C[C@@H]1C[C@H]2[C@@H]3CCC4=CC(=O)C=C[C@]4(C)[C@@]3(F)[C@@H](O)C[C@]2(C)[C@@]1(O)C(=O)CO` [dexamethasone], in test [2] (2 mg/kg p.o.), the “reduction in AUC0-24 values compared to vehicle-treated rats” value is recorded as 51%. The “reduction in leucocyte number” value in test [3] (2 mg/kg p.o. before carrageenan 500 µg i.p.) stood at 30%. In addition, the “lower Evans blue readings compared to control” value in test [4] (2 mg/kg) was 60%.

Broadly, the IC50 is the midpoint of a concentration-inhibition curve.
